Experimental data taken from patent publication US20170014360A1, “METHODS OF TREATING CANCER USING RAD51 SMALL MOLECULE STIMULATORS” (The University of Chicago, priority 2014, published 2017).

Key:
[1] = system: normal primary human fibroblasts (MRC-5); assay: Immunofluorescence microscopy to detect RAD51 and RPA foci in MRC-5 cells; assay type: cell-based
Description: (§1) FIGS. 6A-6B. […] FIG. 6A: Cells were grown on cover slips, incubated for 6 hours in media containing 60 μM RS-1. In the 8 Gy radiation control condition, cells were irradiated 6 hours before harvest. Cells were subsequently indirectly immunostained. […] FIG. 6B: Fifty randomly selected nuclei per treatment group were examined and discrete foci were quantified.
(§2) Some cancer cells that strongly overexpress RAD51 are known to develop spontaneous RAD51 nuclear complexes (Raderschall, et al., 2002). […] PC3 prostate cancer cells and normal primary human fibroblasts (MRC-5) were treated with RS-1 and examined by immunofluorescence microscopy. To determine whether RAD51-staining structures represented sites of DNA repair vs. non-damage-associated sites, nuclei were counterstained for RPA, which forms punctuate sub-nuclear foci specifically in response to DNA damage at sites that colocalize with damage-induced RAD51 foci (Golub, et al., 1998).
(§3) Cells were grown on coverslips and treated with RS-1 or radiation as indicated. They were subsequently fixed with 3% paraformaldahyde/3.4% sucrose, and permeabilized with a standard buffer (20 mM HEPES pH 7.4, 0.5% TritonX-100, 50 mM NaCl, 3 mM MgCl2, 300 mM sucrose). […] Images were recorded at a single representative focal plane using a CCD camera. For each experimental condition, 50 randomly selected nuclei were quantified using NIH Image software.

PC3 tumors = assay: PC3 xenograft tumor model in athymic nude mice
Description: FIG. 7. […] PC3 tumors were induced in the hind limbs of athymic nude mice. Mice were then randomized into two treatment groups. Starting on day 0, mice then received 5 daily intra-peritoneal injections with either RS-1 (110 mg/kg) or vehicle alone control. Median tumor volume is plotted, normalized to the starting tumor volume on day 0.
An in-vivo tumor model was used to further test the concept of RAD51 stimulation as a cancer treatment. Subcutaneous xenograft PC3 tumors were induced in the hind limbs of athymic nude mice, and the mice were subsequently treated with daily intra-peritoneal injections of RS-1 for five consecutive days. The daily dose administered to the mice was designed to yield an idealized concentration of 300 μM within the aqueous compartment of a mouse, based on an assumption of homogenous distribution across a 21 gm animal that is composed of 70% water.
Xenograft tumors were induced in the hind limbs of athymic nude mice by subcutaneous injection of 1×10^6 PC3 cells, and tumors were allowed to grow to an average volume of about 50 mm^3. Mice were then were randomized into treatment groups, each consisting of 7 mice. […] Tumor measurements were taken 3 times per week with a caliper and expressed as tumor volume, which was approximated from the product of width×length×height×0.5.

[2] = molecular target: T1, purified human RAD51 protein (Homo sapiens, UniProt Q06609); assay: Measurement of RAD51 binding to DNA by fluorescence polarization; conditions: 75 nM RAD51, various concentrations of RS-1, 100 nM DNA substrate
T1 sequence (Q06609 1-339): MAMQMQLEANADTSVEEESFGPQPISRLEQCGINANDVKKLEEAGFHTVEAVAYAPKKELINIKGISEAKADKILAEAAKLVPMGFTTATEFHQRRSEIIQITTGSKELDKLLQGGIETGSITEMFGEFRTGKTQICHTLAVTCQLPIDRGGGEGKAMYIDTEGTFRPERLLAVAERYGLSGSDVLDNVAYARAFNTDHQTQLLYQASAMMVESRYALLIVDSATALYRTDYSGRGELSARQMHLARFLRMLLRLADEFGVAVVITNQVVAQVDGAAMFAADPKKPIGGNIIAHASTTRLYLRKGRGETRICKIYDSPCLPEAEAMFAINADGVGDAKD
Description: Various concentrations of RS-1 were incubated with purified hRAD51 protein and a fluorescently tagged DNA substrate, consisting of either a ssDNA oligonucleotide (DHD162-CD-CF) or a dsDNA double hairpin (DHD162). Binding of RAD51 to DNA was measured as a function of fluorescence polarization of the tag, as described in the methods section.
Experiments were performed as previously described with some modifications (Budke, et al., 2012). Briefly, 75 nM purified human RAD51 protein was incubated with various concentrations of RS-1 in FP reaction buffer at 37° C. for 40 minutes. FP reaction buffer consisted of 20 mM Hepes pH 7.5, 10 mM MgCl2, 0.25 μM BSA, 2% glycerol, 30 mM NaCl, 4% DMSO, 0.1 mM tris(2-carboxyethyl)phosphine (TCEP), and 2 mM ATP. Fluorescently tagged DNA substrate was then added to a final concentration of 100 nM (nucleotide concentration for ssDNA or base pair concentration for dsDNA) and incubated at 37° C. for another 40 minutes. DNA substrates consisted of either an Alexa Fluor 488-labeled oligo-dT 45-mer, a fluorescein-labeled ssDNA oligonucleotide (DHD162-CD-CF), or a fluorescein-labeled dsDNA double hairpin (DHD162) which were previously described (Budke, et al., 2013). Fluorescence polarization measurements were obtained as previously described (Budke, et al., 2012). […]

RAD51 [3] = molecular target: T2, RAD51 (Homo sapiens, UniProt Q06609); conditions: cited from earlier work
T2 sequence (Q06609 1-339): T1 sequence (Q06609 1-339)

[4] = system: PC3 prostate cancer cells; assay: Immunofluorescence microscopy to detect RAD51 and RPA foci in PC3 cells; assay type: cell-based, human
Description: as §1, §2, §3

RAD51 [5] = molecular target: T2, RAD51; conditions: cited from earlier work; remark: listed apart in the source
PC3 cells = assay: Cell survival assay in PC3 cells (with or without siRNA knockdown); assay type: cell-based, human
Description: PC3 cells were treated with various concentrations of RAD51 siRNA for 48 hours. […] Following RNAi, cells were allowed to grow for 7 days and assayed for viability in the absence of additional treatment. FIG. 3B: Following RNAi, cells were incubated for 24 hours in media containing varying concentrations of RS-1. Cells were then allowed to grow in drug-free media for an additional 6 days. Average survival for each condition is normalized to the 0 μM RS-1 control of that condition.
PC3 cells were treated with siRNA against RAD54L, RAD54B, both, or a non-silencing (NS) control for 48 hours. Following RNAi, cells were subsequently incubated for 24 hours in media containing varying concentrations of RS-1. Cells were then allowed to grow in RS-1-free media for an additional 6 days. Average survival for each condition is normalized to the 0 μM RS-1 control of that condition.
(§4) Cells were plated into 96-well tissue culture plates at a density of 300 cells per well in the presence or absence of RS-1 for 24 hours at 37° C., 5% CO2. RS-1 was then removed, and cultures were allowed to grow for approximately one week to a 50-70% confluence. Average survival from six replicates was measured using CellGlo reagent (Promega), and error bars represent the standard error.
The RAD51 siRNA and the All-Stars negative control siRNA (NS) were ordered from Qiagen. RAD54B siRNAs were ordered from Invitrogen (Stealth). The RAD54L siRNA cocktail was ordered from Santa Cruz (sc-36362). All siRNAs were transfected using RNAiMax as per manufacturer's instructions (Invitrogen). Briefly, 2.0×10^5 cells were plated in 6 well dishes containing siRNA complexes to achieve the desired final concentration of siRNAs. The RAD54B and RAD54L siRNAs consisted of a cocktail of three independent siRNAs. The concentration of siRNAs transfected were 25 nM for RAD54L and 50 nM RAD54B. Co-depletion of RAD54L and RAD54B was performed by transfecting cells simultaneously with both siRNAs. At 48 hours post transfection, cells were harvested for cell survival assays and western blotting as described.

HT1080 cells = assay: Cell survival assay in HT1080 cells with doxycycline-repressible RAD51 transgene; assay type: cell-based, human; conditions: HT1080, RAD51 overexpression by doxycycline removal; 24 hours RS-1, 6 days drug-free
Description: HT1080 cells carrying a doxycycline-repressible RAD51 transgene were pre-treated with varying levels of doxycycline for 24 hours. […] In lower panel, cells were subsequently incubated for 24 hours in media containing varying concentrations of RS-1. Cells were then allowed to grow in drug-free media for an additional 6 days, and indicated doxycycline concentrations were maintained throughout the entire experiment. Average survival for each condition is normalized to the 0 μM RS-1 control of that condition.
as §4
To confirm that RS-1 toxicity is directly related to RAD51 and translocases protein levels, these proteins were experimentally manipulated in cells. First, RAD51 was overexpressed in human fibrosarcoma HT1080 cells carrying a doxycycline-repressible RAD51 transgene.

[6] = 110 mg/kg intra-peritoneal, 5 daily injections

Structure (SMILES): O=C(Nc1ccc(Br)cc1)c1ccc(Br)c(S(=O)(=O)NCc2ccccc2)c1 [RS-1, 3-Benzylsulfamoyl-4-bromo-N-(4-bromo-phenyl)-benzamide]
- nuclei with >10 RAD51 foci/nucleus ([1]; MRC-5, 60 μM RS-1, 6 hours): no MRCS nuclei exhibited >10 RAD51 foci/nucleus
- cells with >10 RPA foci/nucleus ([1]; MRC-5, after RS-1 treatment): Neither cell type exhibited >10 RPA foci/nucleus in any cells
- anti-tumor response relative to vehicle-alone control (PC3 tumors; [6]): significant anti-tumor responses
- toxic deaths (PC3 tumors; [6]): no toxic deaths observed
- delay in tumor regrowth relative to vehicle-alone control (PC3 tumors; 110 mg/kg intra-peritoneal, 5 daily injections, remaining tumors): > 2 week
- tumors that completely disappeared after treatment and never regrew (PC3 tumors; 110 mg/kg intra-peritoneal, 5 daily injections, two month observation, 3 of 7): 43%
- transient weight loss (PC3 tumors; during the treatment week, regained post-treatment): about 10%
- binding of RAD51 to ssDNA and dsDNA [2]: stimulates the binding of RAD51 to both ssDNA and dsDNA
- DNA strand invasion activity of RAD51 (RAD51 [3]): capable of stimulating DNA strand invasion activity of RAD51
- nuclei with >10 RAD51 foci/nucleus ([4]; PC3, 60 μM RS-1, 6 hours, no DNA damage): 43%
- cells with >10 RPA foci/nucleus ([4]; PC3, after RS-1 treatment): Neither cell type exhibited >10 RPA foci/nucleus in any cells
- protection of RAD51 filaments from high salt (RAD51 [5]; buffers containing high salt concentration): protects these filaments from buffers containing high salt concentration
- RAD51 filament formation (further study) (RAD51 [5]): enhances RAD51 filament formation
- effect of RAD51 depletion on RS-1 induced toxicity (PC3 cells; PC3, RAD51 siRNA 48 hours, then 24 hours RS-1): significant protection from RS-1 induced toxicity
- LD90 (PC3 cells; PC3, relative to panel of cell lines): low LD90
- effect of RAD54B or RAD54L knockdown on RS-1 toxicity (PC3 cells; PC3, siRNA 48 hours, then 24 hours RS-1): significantly sensitized PC3 cells to RS-1 toxicity
- sensitivity to RS-1 of cells with the highest RAD51 expression levels (HT1080 cells): significantly more sensitive to RS-1
